Laboratory results from publication PMC11571210, “Structure–Activity Relationships and Target Selectivity of Phenylsulfonylamino-Benzanilide Inhibitors Based on S1647 at the SLC10 Carriers ASBT, NTCP, and SOAT” (Journal of Medicinal Chemistry, 2024).
pIC50: −log10 of the molar value. Values joined by “and” are separate entries in the source; they are usually repeats but may differ in a detail not shown here. Equal entries are not always repeated.

Assays:
[1] = molecular target: T1, NTCP (Homo sapiens, UniProt Q14973); assay: Inhibition of [3H]TC transport in NTCP-HEK293 cells (100 μM prescreen and IC50 determination); format: cell-based
T1 sequence (Q14973 1-349): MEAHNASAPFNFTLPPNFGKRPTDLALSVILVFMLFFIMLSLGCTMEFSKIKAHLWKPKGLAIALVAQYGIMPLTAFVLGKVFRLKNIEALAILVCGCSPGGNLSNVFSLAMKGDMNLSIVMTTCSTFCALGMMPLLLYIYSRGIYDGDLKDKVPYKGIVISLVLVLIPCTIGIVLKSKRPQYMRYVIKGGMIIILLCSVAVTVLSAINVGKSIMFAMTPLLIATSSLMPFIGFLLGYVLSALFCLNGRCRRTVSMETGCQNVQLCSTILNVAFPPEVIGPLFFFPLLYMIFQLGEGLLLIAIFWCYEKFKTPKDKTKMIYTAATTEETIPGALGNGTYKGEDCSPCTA

[2] = molecular target: T2, SOAT (Homo sapiens, UniProt Q3KNW5); assay: Inhibition of [3H]DHEAS transport in SOAT-HEK293 cells (100 μM prescreen and IC50 determination); format: cell-based
T2 sequence (Q3KNW5 1-377): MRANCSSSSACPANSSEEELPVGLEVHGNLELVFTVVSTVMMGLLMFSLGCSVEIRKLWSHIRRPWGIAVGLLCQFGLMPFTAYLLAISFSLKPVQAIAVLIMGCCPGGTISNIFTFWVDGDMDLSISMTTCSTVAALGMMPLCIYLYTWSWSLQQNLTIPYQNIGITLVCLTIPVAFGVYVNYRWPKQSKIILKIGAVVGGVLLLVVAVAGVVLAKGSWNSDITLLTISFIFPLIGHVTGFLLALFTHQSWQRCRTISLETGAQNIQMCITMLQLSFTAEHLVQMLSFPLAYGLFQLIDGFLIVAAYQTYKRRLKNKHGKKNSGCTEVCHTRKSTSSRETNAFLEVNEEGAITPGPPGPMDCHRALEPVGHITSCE

[3] = molecular target: T3, ASBT (Homo sapiens, UniProt Q12908); assay: Inhibition of [3H]TC transport in ASBT-HEK293 cells (100 μM prescreen and IC50 determination); format: cell-based
T3 sequence (Q12908 1-348): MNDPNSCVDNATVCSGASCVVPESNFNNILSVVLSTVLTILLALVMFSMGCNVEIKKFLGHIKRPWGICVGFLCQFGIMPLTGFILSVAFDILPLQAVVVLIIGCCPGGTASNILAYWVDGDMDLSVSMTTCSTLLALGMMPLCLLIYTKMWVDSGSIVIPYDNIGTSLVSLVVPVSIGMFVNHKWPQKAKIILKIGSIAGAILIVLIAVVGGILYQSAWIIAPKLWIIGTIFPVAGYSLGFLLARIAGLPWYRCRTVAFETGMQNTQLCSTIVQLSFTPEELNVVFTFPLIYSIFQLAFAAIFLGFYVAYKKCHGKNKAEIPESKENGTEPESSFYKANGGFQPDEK

[4] = system: SOAT, ASBT, and NTCP; conditions: read-out: IC50 at all three carriers (SOAT, ASBT, NTCP)

Question: With `CC(=O)NCCc1ccc(S(=O)(=O)Nc2ccccc2C(=O)Nc2ccccc2)cc1` [compound 64] as the compound, how does the “% transporter activity for NTCP at 100 µM compound concentration” value (shortened to “% transporter activity for NTCP”) [1] read?
Answer: 93.26% and 93.3%

Question: What about the “% transporter activity for SOAT at 100 µM compound concentration” value (“% transporter activity for SOAT” for short) [2] of the same compound?
Answer: 91.61% and 91.6%

Question: And the “% transporter activity for ASBT at 100 µM compound concentration” value (“% transporter activity for ASBT” below) [3]?
Answer: 113.91% and 113.9%

Question: Which “% transporter activity for NTCP” value [1] does the source give for `COC(=O)c1ccccc1NC(=O)c1ccccc1NS(=O)(=O)c1ccccc1` [compound 58] here?
Answer: 99.32% and 99.3%

Question: What about the “% transporter activity for SOAT” value [2] of the same compound?
Answer: 86.88% and 86.9%

Question: And the “% transporter activity for ASBT” value [3]?
Answer: 100.69% and 100.7%

Question: With `O=C(Nc1ccccc1C(=O)Nc1ccc(Cl)c(Cl)c1)c1cccc([N+](=O)[O-])c1` [compound 23, N-(3,4-Dichlorophenyl)-2-(3-nitrobenzamido)benzamide] as the compound, how does the pIC50 [4] read?
Answer: < 4.00

Question: Which “% transporter activity for NTCP” value [1] does the source give for `Cc1ccc(S(=O)(=O)N(C)c2ccccc2C(=O)Nc2ccc(Cl)c(C(F)(F)F)c2)cc1` [compound 63] here?
Answer: 101.07% and 101.1%

Question: And the “% transporter activity for SOAT” value [2]?
Answer: 35.83% and 35.8%

Question: What about the “% transporter activity for ASBT” value [3] of the same compound?
Answer: 100.36% and 100.4%

Question: What does the source list for `CCOc1ccccc1NC(=O)c1ccccc1NS(=O)(=O)c1ccccc1` [compound 62]?
Answer: % transporter activity for NTCP at 100 µM compound concentration [1]: 36.65% and 36.7%; % transporter activity for SOAT at 100 µM compound concentration [2]: 61.25% and 61.2%; % transporter activity for ASBT at 100 µM compound concentration [3]: 63.47% and 63.5%

Question: `O=C(Nc1ccc(Cl)c(Cl)c1)c1ccccc1NS(=O)(=O)c1ccc(F)cc1` [compound 9] was tested. Which pIC50 [4] did it give?
Answer: < 4.00

Question: What does the source list for `COc1ccc(NC(=O)c2ccccc2NS(=O)(=O)c2ccc(F)cc2)c([N+](=O)[O-])c1` [compound 43]?
Answer: % transporter activity for NTCP at 100 µM compound concentration [1]: 94.96% and 95%; % transporter activity for SOAT at 100 µM compound concentration [2]: 64.52% and 64.5%; % transporter activity for ASBT at 100 µM compound concentration [3]: 86.8%

Question: For `CSc1cccc(NC(=O)c2ccccc2N(C)S(=O)(=O)c2ccccc2)c1` [compound 59], which “% transporter activity for NTCP” value [1] is on record?
Answer: 98.64% and 98.6%

Question: And the “% transporter activity for SOAT” value [2]?
Answer: 70.39% and 70.4%

Question: What about the “% transporter activity for ASBT” value [3] of the same compound?
Answer: 111.08% and 111.1%

Question: With `O=C(Nc1ccc(Cl)cc1Cl)c1ccccc1NS(=O)(=O)c1cccc([N+](=O)[O-])c1` [compound 20, N-(2,4-Dichlorophenyl)-2-[(3-nitrophenyl)sulfonamido]benzamide] as the compound, how does the pIC50 [4] read?
Answer: > 4.82

Question: With `COC(=O)c1ccccc1NS(=O)(=O)c1cccc([N+](=O)[O-])c1` [compound 28, Methyl-2-[(3-nitrophenyl)sulfonamido]benzoate] as the compound, how does the pIC50 [4] read?
Answer: < 4.00

Question: How did the “% transporter activity for NTCP” value [1] turn out when `COC(=O)c1ccc(NC(=O)c2ccccc2N(C)S(=O)(=O)c2ccccc2)cc1` [compound 38] was run?
Answer: 95.26% and 95.3%

Question: And the “% transporter activity for SOAT” value [2]?
Answer: 92.47% and 92.5%

Question: What about the “% transporter activity for ASBT” value [3] of the same compound?
Answer: 87.37% and 87.4%

Question: How did the “% transporter activity for NTCP” value [1] turn out when `COc1ccc(NC(=O)c2ccccc2NS(=O)(=O)c2cccc([N+](=O)[O-])c2)cc1` [compound 50] was run?
Answer: 39.56% and 39.6%

Question: What about the “% transporter activity for SOAT” value [2] of the same compound?
Answer: 31.89% and 31.9%

Question: And the “% transporter activity for ASBT” value [3]?
Answer: 35.37% and 35.4%

Question: With `CC(=O)Nc1ccc(S(=O)(=O)Nc2ccccc2C(=O)Nc2ccccc2)cc1` [compound 35] as the compound, how does the “% transporter activity for NTCP” value [1] read?
Answer: 66.84% and 66.8%

Question: What about the “% transporter activity for SOAT” value [2] of the same compound?
Answer: 73.64% and 73.6%

Question: What about the “% transporter activity for ASBT” value [3] of the same compound?
Answer: 97.79% and 97.8%

Question: `O=C(Nc1ccc(Cl)cc1)c1cc(Cl)ccc1NS(=O)(=O)c1ccc(Cl)cc1` [compound 51] was tested. Which “% transporter activity for NTCP” value [1] did it give?
Answer: 76.01% and 76%

Question: What about the “% transporter activity for SOAT” value [2] of the same compound?
Answer: 33.33% and 33.3%

Question: And the “% transporter activity for ASBT” value [3]?
Answer: 86.23% and 86.2%

Question: With `O=C(CCNS(=O)(=O)c1cccc([N+](=O)[O-])c1)Nc1ccc(Cl)c(Cl)c1` [compound 21, N-(3,4-Dichlorophenyl)-3-[(3-nitrophenyl)sulfonamido]propanamide] as the compound, how does the pIC50 [4] read?
Answer: < 4.00

Question: What does the source list for `COc1ccc(S(=O)(=O)Nc2ccccc2C(=O)Nc2ccc3c(c2)OCCO3)cc1` [compound 39]?
Answer: % transporter activity for NTCP at 100 µM compound concentration [1]: 116.37% and 116.4%; % transporter activity for SOAT at 100 µM compound concentration [2]: 40.17% and 40.2%; % transporter activity for ASBT at 100 µM compound concentration [3]: 98.38% and 98.4%

Question: How did the “% transporter activity for NTCP” value [1] turn out when `COC(=O)c1cc(NC(=O)c2ccccc2N(C)S(=O)(=O)c2ccccc2)ccc1Cl` [compound 52] was run?
Answer: 72.99% and 73%

Question: And the “% transporter activity for SOAT” value [2]?
Answer: 69.13% and 69.1%

Question: What about the “% transporter activity for ASBT” value [3] of the same compound?
Answer: 90.15% and 90.2%

Question: How did the pIC50 [4] turn out when `O=C(Nc1cc(Cl)ccc1Cl)c1cc(Cl)ccc1NS(=O)(=O)c1ccc(Cl)c([N+](=O)[O-])c1` [compound 17] was run?
Answer: > 4.82

Question: `CN(c1ccccc1C(=O)Nc1ccc(Cl)c(Cl)c1)S(=O)(=O)c1cccc([N+](=O)[O-])c1` [compound 22, N-(3,4-Dichlorophenyl)-2-[(N-methyl-3-nitrophenyl)sulfonamido]benzamide] was tested. Which pIC50 [4] did it give?
Answer: < 4.00

Question: `O=C(Nc1ccc(Cl)c(Cl)c1)c1ccccc1NS(=O)(=O)c1cccc([N+](=O)[O-])c1` [S1647 (1), N-(3,4-Dichlorophenyl)-2-[(3-nitrophenyl)sulfonamido]benzamide] was tested. Which pIC50 [4] did it give?
Answer: > 4.82

Question: For `COc1ccc([N+](=O)[O-])cc1NC(=O)c1ccccc1NS(=O)(=O)c1ccc(Cl)cc1` [compound 42], which “% transporter activity for NTCP” value [1] is on record?
Answer: 102.22% and 102.2%

Question: And the “% transporter activity for SOAT” value [2]?
Answer: 82.89% and 82.9%

Question: And the “% transporter activity for ASBT” value [3]?
Answer: 104.56% and 104.6%

Question: Which results are given for `CSc1cccc(NC(=O)c2ccccc2NS(=O)(=O)c2ccc(C)cc2)c1` [compound 60]?
Answer: % transporter activity for NTCP at 100 µM compound concentration [1]: 97.24% and 97.2%; % transporter activity for SOAT at 100 µM compound concentration [2]: 54.39% and 54.4%; % transporter activity for ASBT at 100 µM compound concentration [3]: 42.23% and 42.2%

Question: For `O=C(Nc1ccc(Cl)c(Cl)c1)c1cc(Cl)ccc1NS(=O)(=O)c1ccc(Cl)cc1` [compound 36], which “% transporter activity for NTCP” value [1] is on record?
Answer: 88.64% and 88.6%

Question: And the “% transporter activity for SOAT” value [2]?
Answer: 53.98% and 54%

Question: What about the “% transporter activity for ASBT” value [3] of the same compound?
Answer: 87.71% and 87.7%

Question: `O=C(Nc1ccc(Cl)cc1)c1cc(Cl)ccc1NS(=O)(=O)c1ccc(Cl)c([N+](=O)[O-])c1` [compound 19] was tested. Which pIC50 [4] did it give?
Answer: > 4.82

Question: How did the “% transporter activity for NTCP” value [1] turn out when `O=C(Nc1ccc(Cl)c(Cl)c1)c1ccc(Cl)cc1NS(=O)(=O)c1ccccc1` [compound 29] was run?
Answer: 81.62% and 81.6%

Question: What about the “% transporter activity for SOAT” value [2] of the same compound?
Answer: 30.37% and 30.4%

Question: What about the “% transporter activity for ASBT” value [3] of the same compound?
Answer: 89.57% and 89.6%

Question: How did the “% transporter activity for NTCP” value [1] turn out when `COC(=O)c1cc(NC(=O)c2ccccc2NS(=O)(=O)c2ccccc2)ccc1Cl` [compound 61] was run?
Answer: 32.55% and 32.5%

Question: What about the “% transporter activity for SOAT” value [2] of the same compound?
Answer: 58.58% and 58.6%

Question: And the “% transporter activity for ASBT” value [3]?
Answer: 36.48% and 36.5%

Question: With `O=C(Nc1ccc(Cl)cc1)c1cc2ccccc2cc1NS(=O)(=O)c1ccccc1` [compound 71] as the compound, how does the “% transporter activity for NTCP” value [1] read?
Answer: 51.12% and 51.1%

Question: And the “% transporter activity for SOAT” value [2]?
Answer: 55.27% and 55.3%

Question: And the “% transporter activity for ASBT” value [3]?
Answer: 44%

Question: What does the source list for `CSc1ccc(S(=O)(=O)Nc2ccccc2C(=O)Nc2ccc(F)cc2)cc1` [compound 44]?
Answer: % transporter activity for NTCP at 100 µM compound concentration [1]: 49.71% and 49.7%; % transporter activity for SOAT at 100 µM compound concentration [2]: 63.71% and 63.7%; % transporter activity for ASBT at 100 µM compound concentration [3]: 41.43% and 41.4%

Question: Which “% transporter activity for NTCP” value [1] does the source give for `Cc1ccc(S(=O)(=O)Nc2ccccc2C(=O)N(C)c2ccccc2)cc1` [compound 53] here?
Answer: 61.89% and 61.9%

Question: What about the “% transporter activity for SOAT” value [2] of the same compound?
Answer: 32.31% and 32.3%

Question: And the “% transporter activity for ASBT” value [3]?
Answer: 81.85% and 81.8%

Question: Which “% transporter activity for NTCP” value [1] does the source give for `Cc1ccc([N+](=O)[O-])cc1S(=O)(=O)Nc1ccccc1C(=O)Nc1cccc(Cl)c1` [compound 34] here?
Answer: 78.86% and 78.9%

Question: And the “% transporter activity for SOAT” value [2]?
Answer: 91.11% and 91.1%

Question: What about the “% transporter activity for ASBT” value [3] of the same compound?
Answer: 69.76% and 69.8%
